Measurements taken from patent US7585977B2, “Selective estrogen receptor modulators containing a phenylsulfonyl group” (Eli Lilly and Company, priority 2005, dated 2009).
Structures can show the parent of a compound that is named as a salt.

Legend:
[1] = test system: Ishikawa human endometrial tumor cells; assay: Ishikawa Cell Proliferation Assay, agonist mode (alkaline phosphatase readout); format: cell-based; details: versus the response to tamoxifen, read-out: relative % efficacy
[2] = test system: immature (3 week old) female rats; assay: 3-Day Rat Uterus Antagonist Assay; format: in vivo; details: oral, 3 days, with E2 0.1 mg/kg
Text: 3-Day Rat Uterus Antagonist Assay: This model for uterine antagonism utilizes immature (3 week old) female rats that are highly sensitive to estrogenic stimulation of the uterus given that their circulating estrogen levels are prepubertal. The uteri from immature rats are fully responsive to exogenous estrogen, yet are quiescent in the absence of exogenous estrogen. Administration of exogenous estrogen to immature rats produces a reliable elevation of uterine weight, which can be used to study uterine antagonist effects.
Test compounds are dissolved in 20% β-hydroxycyclodextrin and administered by oral gavage in a volume of 0.2 mL daily (15 min. prior to the ethynyl estradiol gavage). A vehicle control, E2 alone and E2+raloxifene are also done as controls. The animals are fasted overnight following the final dose. […]
Uterine weight/body weight ratios (UWR) are calculated for each animal. The percent inhibition of the estrogen-induced response is then calculated by the following formula: percent inhibition=100×(UWRestrogen−UWRtest compound/UWRestrogen−UWRcontrol). […] Both the UWR data and the percent inhibition data were statistically analyzed by one way analysis of variance (ANOVA) with post-hoc testing by Fisher's PLSD when indicated by a p≦0.05. […]

[3] = test system: Ishikawa human endometrial tumor cells; assay: Ishikawa Cell Proliferation Assay, antagonist mode (block of estradiol stimulation); format: cell-based
Protocol: Ishikawa Cell Proliferation Assay: This assay measures cell proliferation (using an alkaline phosphatase readout) in both an agonist mode in the presence of a compound of the present invention alone, and in an antagonist mode in which the ability of a compound of the present invention to block estradiol stimulation of growth is measured.
Ishikawa human endometrial tumor cells are maintained in MEM (minimum essential medium, with Earle's salts and L-Glutamine, Gibco BRL, Gaithersburg, Md.), supplemented with 10% fetal bovine serum (FBS) (V/V), (Gibco BRL). […]
For the agonist mode, plates receive 25 μl/well of assay medium followed by 25 μl/well of a diluted compound of the present invention (at 6× the final concentrations). […] After a 20-minute incubation, plates are read on a spectophotometer at 405 nm.
The data is fitted to a linear interpolation to derive EC50 (for agonist mode) or IC50 (for antagonist mode) values. For the antagonist mode, a % efficacy for each compound is calculated versus E2 (1 nM) alone. For the agonist mode, a % efficacy for each compound is calculated versus the response to tamoxifen.

[4] = test system: mature, ovariectomized rats; assay: 4-Day OVX Rat Uterine Agonist Assay; format: in vivo; details: 4 days of treatment, 3 doses
Protocol: Cholesterol levels are also measured to compare relative ability to lower cholesterol with other SERMs. If there is any question of uterine stimulation, histological examination will determine epithelial cell height.

With CCS(=O)(=O)c1cc(-c2ccc3cc(O)ccc3c2Oc2ccc(OCCN3CCCCC3)cc2)cc(S(=O)(=O)CC)c1 [Example 56, 6-(3,5-Bis-ethanesulfonyl-phenyl)-5-[4-(2-piperidin-1-yl-ethoxy)-phenoxy]-naphthalen-2-ol Hydrochloride] the Emax [1] was 71.8%.

CS(=O)(=O)c1ccc(-c2sc3cc(O)ccc3c2Oc2ccc(OCCN3CCCCC3)cc2)cc1.Cl [Example 92, 2-(4-Methanesulfonyl-phenyl)-3-[4-(2-piperidin-1-yl-ethoxy)-phenoxy]-benzo[b]thiophen-6-ol Hydrochloride] was tested, and the “% antagonism” value [2] was 62.7% and the ED50 [2] was 0.53 mpk.

With CS(=O)(=O)c1cccc(-c2ccc3cc(O)ccc3c2Oc2ccc(OCCN3CCCCC3)cc2)c1 [Example 16, 6-(3-Methanesulfonyl-phenyl)-5-[4-(2-piperidin-1-yl-ethoxy)-phenoxy]-naphthalen-2-ol Hydrochloride] the IC50 ([3]; 1 nM E2) was 35.2 nM and the Emax ([3]; versus E2 (1 nM) alone, read-out: % efficacy (inhibition of the 1 nM estradiol response)) was 107%.

With CCS(=O)(=O)c1ccc(-c2ccc3cc(O)ccc3c2Oc2ccc(OCCN3CCCCC3)cc2)cc1.Cl [Example 14, 6-(4-Ethanesulfonyl-phenyl)-5-[4-(2-piperidin-1-yl-ethoxy)-phenoxy]-naphthalen-2-ol Hydrochloride] the “uterine eosinophil peroxidase (EPO) activity” value [4] was “did not cause dose-related statistically significant increases”.
